Measured values as given in patent US20150105252A1, “SUBSTITUTED PYRAZOLES AS HERBICIDES” (E I DU PONT DE NEMOURS AND COMPANY, priority 2013, published 2015).

Key:
velvetleaf [1] = assay: Test A preemergence; type: in vivo, Abutilon theophrasti; settings: preemergence; for Velvetleaf plant response rating (0 to 100 scale): visual injury approx. 10 days after treatment
Method in brief: (§1)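 Both timings tested concurrently in loam/sand soil: preemergence by directed soil spray, postemergence on plants of 2–10 cm at the one- to two-leaf stage. Greenhouse holding period was approximately 10 days before visual injury assessment (0–100, 0 = no effect).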

pigweed [2] = assay: Test A postemergence; type: in vivo, Amaranthus retroflexus
Method in brief: as §1

corn [3] = assay: Test A preemergence; type: in vivo, Zea mays; settings: preemergence; for Corn plant response rating (0 to 100 scale): visual injury approx. 10 days after treatment
Method in brief: as §1

corn [4] = assay: Test A postemergence; type: in vivo, Zea mays
Method in brief: as §1

wheat [5] = assay: Test A postemergence; type: in vivo, Triticum aestivum
Method in brief: as §1

foxtail, giant [6] = assay: Test A postemergence; type: in vivo, Setaria faberii
Method in brief: as §1

foxtail, giant [7] = assay: Test A preemergence; type: in vivo, Setaria faberii; settings: preemergence; for Foxtail, Giant plant response rating (0 to 100 scale): visual injury approx. 10 days after treatment
Method in brief: as §1

wheat [8] = assay: Test A preemergence; type: in vivo, Triticum aestivum; settings: preemergence; for Wheat plant response rating (0 to 100 scale): visual injury approx. 10 days after treatment
Method in brief: as §1

crabgrass, large [9] = assay: Test A preemergence; type: in vivo, Digitaria sanguinalis; settings: preemergence; for Crabgrass, Large plant response rating (0 to 100 scale): visual injury approx. 10 days after treatment
Method in brief: as §1

ducksalad = assay: Test B flood; type: in vivo, Heteranthera limosa; settings: 250 g ai/ha, visual rating on 0 to 100 scale (0 no effect, 100 complete control), 13 to 15 days
Method in brief: (§2)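 Flooded-pot test: compound dosed into 3 cm of standing water above soil when plants had two leaves. Visual control ratings (0–100) versus untreated plants after 13–15 d.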

barnyardgrass [10] = assay: Test A postemergence; type: in vivo, Echinochloa crus-galli
Method in brief: as §1

barnyardgrass [11] = assay: Test B flood; type: in vivo, Echinochloa crus-galli; settings: 250 g ai/ha, visual rating on 0 to 100 scale (0 no effect, 100 complete control), 13 to 15 days
Method in brief: as §2

rice = assay: Test B flood; type: in vivo, Oryza sativa; settings: 250 g ai/ha, visual rating on 0 to 100 scale (0 no effect, 100 complete control), 13 to 15 days
Method in brief: as §2

morningglory [12] = assay: Test A preemergence; type: in vivo, Ipomoea spp.; settings: preemergence; for Morningglory plant response rating (0 to 100 scale): visual injury approx. 10 days after treatment
Method in brief: as §1

velvetleaf [13] = assay: Test A postemergence; type: in vivo, Abutilon theophrasti
Method in brief: as §1

pigweed [14] = assay: Test A preemergence; type: in vivo, Amaranthus retroflexus; settings: preemergence; for Pigweed plant response rating (0 to 100 scale): visual injury approx. 10 days after treatment
Method in brief: as §1

crabgrass, large [15] = assay: Test A postemergence; type: in vivo, Digitaria sanguinalis
Method in brief: as §1

sedge, umbrella = assay: Test B flood; type: in vivo, Cyperus difformis; settings: 250 g ai/ha, visual rating on 0 to 100 scale (0 no effect, 100 complete control), 13 to 15 days
Method in brief: as §2

morningglory [16] = assay: Test A postemergence; type: in vivo, Ipomoea spp.
Method in brief: as §1

barnyardgrass [17] = assay: Test A preemergence; type: in vivo, Echinochloa crus-galli; settings: preemergence
Method in brief: as §1

[18] = 125 g ai/ha, visual injury, 0 to 100 scale, approx. 10 days
[19] = 500 g ai/ha, visual injury after approx. 10 days, 0 to 100 scale (0 no effect, 100 complete control)
[20] = Postemergence, 500 g ai/ha, visual rating after approx. 10 days, 0 to 100 scale (0 no effect, 100 complete control)
[21] = postemergence, 125 g ai/ha, about 10 days, visual rating on 0 to 100 scale (0 no effect, 100 complete control)
[22] = Postemergence, 500 g ai/ha, 0 to 100 scale (0 no effect, 100 complete control)

| Structure (SMILES) | Velvetleaf plant response rating (velvetleaf [1]; [19]) | Pigweed plant response rating (pigweed [2]; [21]) | Corn plant response rating (corn [3]; [19]) | Corn plant response rating (corn [4]; [21]) | Wheat plant response rating (wheat [5]; [21]) | Foxtail, Giant plant response rating (foxtail, giant [6]; [21]) | Foxtail, Giant plant response rating (foxtail, giant [7]; [19]) | Wheat plant response rating (wheat [8]; [19]) | Crabgrass, Large plant response rating (crabgrass, large [9]; [19]) | Plant response rating, Ducksalad (ducksalad) | Barnyardgrass plant response rating (barnyardgrass [10]; [21]) | Plant response rating, Barnyardgrass (barnyardgrass [11]) | Plant response rating, Rice (rice) | Morningglory plant response rating (morningglory [12]; [19]) | Velvetleaf plant response rating (velvetleaf [13]; [21]) | Pigweed plant response rating (pigweed [14]; [19]) | Crabgrass, Large plant response rating (crabgrass, large [15]; [21]) | Plant response rating, Sedge, Umbrella (sedge, umbrella) | Morningglory plant response rating (morningglory [16]; [21]) | Barnyardgrass plant response rating (barnyardgrass [17]; [18]) | other results |
| --- | --- | --- | --- | --- | --- | --- | --- | --- | --- | --- | --- | --- | --- | --- | --- | --- | --- | --- | --- | --- | --- |
| CCCc1cc(-c2ccc(C(F)(F)F)cc2)nn1Cc1ccnc(C(F)(F)F)c1 [Compound 113] | 40 | 60 | 10 | 20 | 20 | 20 | 100 | 30 | 100 | 60 | 10 | 40 | 30 | 70 | 40 | 100 | 20 | 70 | 40 | 20 | Velvetleaf plant response rating (velvetleaf [1]; [18]): 30; Pigweed plant response rating (pigweed [2]; [20]): 100; Corn plant response rating (corn [3]; [18]): 10; Corn plant response rating (corn [4]; [20]): 20; Wheat plant response rating (wheat [5]; [20]): 20; Foxtail, Giant plant response rating (foxtail, giant [6]; [20]): 40; Foxtail, Giant plant response rating (foxtail, giant [7]; [18]): 80; Wheat plant response rating (wheat [8]; [18]): 10; Crabgrass, Large plant response rating (crabgrass, large [9]; [18]): 80; Barnyardgrass plant response rating (barnyardgrass [10]; [20]): 20; Morningglory plant response rating (morningglory [12]; [18]): 40; Velvetleaf plant response rating (velvetleaf [13]; [20]): 100; Pigweed plant response rating (pigweed [14]; [18]): 100; Crabgrass, Large plant response rating (crabgrass, large [15]; [20]): 40; Morningglory plant response rating (morningglory [16]; [20]): 100; Barnyardgrass plant response rating (barnyardgrass [17]; [19]): 60 |
| CCCNC(=O)c1cc(CC)n(Cc2cc(C(F)(F)F)nn2CC)n1 [Compound 117] | 0 | 50 | 10 | 20 | 0 | 20 | 100 | 0 | 100 | 50 | 40 | 0 | 20 | 100 | 40 | 100 | 20 | 75 | 60 | 30 | Velvetleaf plant response rating (velvetleaf [1]; [18]): 0; Pigweed plant response rating (pigweed [2]; [20]): 80; Corn plant response rating (corn [3]; [18]): 0; Corn plant response rating (corn [4]; [20]): 50; Wheat plant response rating (wheat [5]; [20]): 0; Foxtail, Giant plant response rating (foxtail, giant [6]; [20]): 90; Foxtail, Giant plant response rating (foxtail, giant [7]; [18]): 70; Wheat plant response rating (wheat [8]; [18]): 0; Crabgrass, Large plant response rating (crabgrass, large [9]; [18]): 90; Barnyardgrass plant response rating (barnyardgrass [10]; [20]): 80; Morningglory plant response rating (morningglory [12]; [18]): 30; Velvetleaf plant response rating (velvetleaf [13]; [20]): 80; Pigweed plant response rating (pigweed [14]; [18]): 90; Crabgrass, Large plant response rating (crabgrass, large [15]; [20]): 80; Morningglory plant response rating (morningglory [16]; [20]): 90; Barnyardgrass plant response rating (barnyardgrass [17]; [19]): 80 |
| CCc1cc(C(=O)NC(C)C)nn1Cc1cc(C(F)(F)F)nn1CC [Compound 120] | 70 | 50 | 50 | 30 | 0 | 30 | 90 | 40 | 100 | 40 | 30 | 0 | 0 | 100 | 30 | 90 | 30 | 80 | 80 | 20 | Velvetleaf plant response rating (velvetleaf [1]; [18]): 10; Pigweed plant response rating (pigweed [2]; [22]): 80; Corn plant response rating (corn [3]; [18]): 20; Corn plant response rating (corn [4]; [22]): 60; Wheat plant response rating (wheat [5]; [22]): 30; Foxtail, Giant plant response rating (foxtail, giant [6]; [22]): 70; Foxtail, Giant plant response rating (foxtail, giant [7]; [18]): 60; Wheat plant response rating (wheat [8]; [18]): 0; Crabgrass, Large plant response rating (crabgrass, large [9]; [18]): 100; Barnyardgrass plant response rating (barnyardgrass [10]; [22]): 90; Morningglory plant response rating (morningglory [12]; [18]): 70; Velvetleaf plant response rating (velvetleaf [13]; [22]): 80; Pigweed plant response rating (pigweed [14]; [18]): 70; Crabgrass, Large plant response rating (crabgrass, large [15]; [22]): 80; Morningglory plant response rating (morningglory [16]; [22]): 100; Barnyardgrass plant response rating (barnyardgrass [17]; [19]): 100 |
| CCc1cc(C(=O)NCC#N)nn1Cc1ccnc(C(F)(F)F)c1 [Compound 147] | 30 | 60 | 0 | 0 | 0 | 10 | 80 | 0 | 100 | 0 | 10 | 0 | 0 | 70 | 30 | 100 | 10 | 0 | 30 | 0 | Velvetleaf plant response rating (0 to 100 scale) (velvetleaf [1]; 125 g ai/ha): 0; Pigweed plant response rating (pigweed [2]; [22]): 90; Corn plant response rating (0 to 100 scale) (corn [3]; 125 g ai/ha): 0; Corn plant response rating (corn [4]; [22]): 10; Wheat plant response rating (wheat [5]; [22]): 0; Foxtail, Giant plant response rating (foxtail, giant [6]; [22]): 30; Foxtail, Giant plant response rating (0 to 100 scale) (foxtail, giant [7]; 125 g ai/ha): 10; Wheat plant response rating (0 to 100 scale) (wheat [8]; 125 g ai/ha): 0; Crabgrass, Large plant response rating (0 to 100 scale) (crabgrass, large [9]; 125 g ai/ha): 50; Barnyardgrass plant response rating (barnyardgrass [10]; [22]): 30; Morningglory plant response rating (0 to 100 scale) (morningglory [12]; 125 g ai/ha): 20; Velvetleaf plant response rating (velvetleaf [13]; [22]): 50; Pigweed plant response rating (0 to 100 scale) (pigweed [14]; 125 g ai/ha): 90; Crabgrass, Large plant response rating (crabgrass, large [15]; [22]): 40; Morningglory plant response rating (morningglory [16]; [22]): 70; Barnyardgrass plant response rating (barnyardgrass [17]; [19]): 30 |
| CCCCc1cc(C(=O)NOCC)nn1Cc1ccnc(C(F)(F)F)c1 [Compound 152] | 20 | 60 | 0 | 10 | 0 | 10 | 60 | 0 | 80 | 0 | 10 | 0 | 0 | 20 | 20 | 100 | 10 | 0 | 40 | 0 | Velvetleaf plant response rating (0 to 100 scale) (velvetleaf [1]; 125 g ai/ha): 0; Pigweed plant response rating (pigweed [2]; [22]): 80; Corn plant response rating (0 to 100 scale) (corn [3]; 125 g ai/ha): 0; Corn plant response rating (corn [4]; [22]): 30; Wheat plant response rating (wheat [5]; [22]): 0; Foxtail, Giant plant response rating (foxtail, giant [6]; [22]): 40; Foxtail, Giant plant response rating (0 to 100 scale) (foxtail, giant [7]; 125 g ai/ha): 10; Wheat plant response rating (0 to 100 scale) (wheat [8]; 125 g ai/ha): 0; Crabgrass, Large plant response rating (0 to 100 scale) (crabgrass, large [9]; 125 g ai/ha): 40; Barnyardgrass plant response rating (barnyardgrass [10]; [22]): 50; Morningglory plant response rating (0 to 100 scale) (morningglory [12]; 125 g ai/ha): 0; Velvetleaf plant response rating (velvetleaf [13]; [22]): 60; Pigweed plant response rating (0 to 100 scale) (pigweed [14]; 125 g ai/ha): 100; Crabgrass, Large plant response rating (crabgrass, large [15]; [22]): 60; Morningglory plant response rating (morningglory [16]; [22]): 60; Barnyardgrass plant response rating (barnyardgrass [17]; [19]): 60 |
